Earlier results in patent US20250017894A1, “Formulation for Nasal Delivery of Cannabinoids” (priority 2019, published 2025).

## C=C(C)[C@@H]1CCC(C)=C[C@H]1c1c(O)cc(CCCCC)cc1O [CBD, Cannabidiol]
Inhalation of vaporized CBD
  bioavailability, inhalation using vaporized CBD: 26-36%
Intranasal administration
  bioavailability for intranasal administration: 34-46%
Oral administration
  oral bioavailability: 6-15%
Sublingual administration
  bioavailability, sublingual administration: 20-35%
